Experimental data: patent US20060047114A1, “Azabicyclic amine histamine-3 receptor antagonists” (Pfizer Inc, priority 2004, published 2006)
pKi: −log10 of the molar value.

Biological target: T1, rat histamine H3 receptors (Rattus norvegicus, UniProt Q9QYN8)
T1 construct: Frozen rat frontal brain or frozen human post-mortem frontal brain is homogenized; from tissue; host or cells: rat frontal brain membranes
Assay: Rat H3 binding (3H-N-methylhistamine displacement, frontal brain membranes)
Conditions: radioligand 1 nM 3H-N-methylhistamine, 1-hour incubation, read-out: Rat H3 activity (Kj)
Experimental: The in vitro affinity of the compounds in the present invention at the rat or human histamine H3 receptors can be determined according to the following procedure. Frozen rat frontal brain or frozen human post-mortem frontal brain is homogenized in 20 volumes of cold 50 mM Tris HCl containing 2 mM MgCl2 (pH to 7.4 at 4° C.). The homogenate is then centrifuged at 45,000 G for 10 minutes. The supernatant is decanted and the membrane pellet re-suspended by Polytron in cold 50 mM Tris HCl containing 2 mM MgCl2 (pH to 7.4 at 4 degrees C.) and centrifuged again. The final pellet is re-suspended in 50 mM Tris HCl containing 2 mM MgCl2 (pH to 7.4 at 25 degrees C.) at a concentration of 12 mg/mL. Dilutions of compounds are made in 10% DMSO/50 mM Tris buffer (pH 7.4) (at 10× final concentration, so that the final DMSO concentration is 1%). Incubations are initiated by the addition of membranes (200 microliters) to 96 well V-bottom polypropylene plates containing 25 microliters of drug dilutions and 25 microliters of radioligand (1 nM final concentration ^3H-N-methylhistamine). After a 1-hour incubation, assay samples are rapidly filtered through Whatman GF/B filters and rinsed with ice-cold 50 mM Tris buffer (pH 7.4) using a Skatron cell harvester. Radioactivity is quantified using a BetaPlate scintillation counter.

T1 sequence (Q9QYN8 whole entry): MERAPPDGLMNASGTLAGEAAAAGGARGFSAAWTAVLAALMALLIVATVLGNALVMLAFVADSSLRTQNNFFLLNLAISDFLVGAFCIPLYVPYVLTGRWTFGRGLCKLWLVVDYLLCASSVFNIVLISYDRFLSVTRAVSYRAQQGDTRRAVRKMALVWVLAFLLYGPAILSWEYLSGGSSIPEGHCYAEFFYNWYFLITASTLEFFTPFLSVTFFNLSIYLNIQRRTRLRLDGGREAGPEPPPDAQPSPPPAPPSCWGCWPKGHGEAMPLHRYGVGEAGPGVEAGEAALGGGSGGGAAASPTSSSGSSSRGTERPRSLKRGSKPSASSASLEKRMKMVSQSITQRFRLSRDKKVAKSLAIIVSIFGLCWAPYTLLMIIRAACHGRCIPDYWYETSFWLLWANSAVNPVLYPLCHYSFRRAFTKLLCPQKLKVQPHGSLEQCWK

Compound	pKi
CC(=O)c1ccc(CN2C[C@@H]3[C@@H](COCCCN4CCCCC4)[C@@H]3C2)cc1 [Example 2, (1S,5R,6R)-1-{4-[6-(3-Piperidin-1-ylpropoxymethyl)-3-azabicyclo[3.1.0]hex-3-ylmethyl]-phenyl}-ethanone]	6.94
c1ccc(CCN2C[C@@H]3[C@@H](COCCCN4CCCCC4)[C@@H]3C2)cc1 [Example 3, (1S,5R,6R)-3-Phenethyl-6-(3-piperidin-1-ylpropoxymethyl)-3-azabicyclo[3.1.0]-hexane]	7.11
c1ccc(Oc2cccc(CN3C[C@@H]4[C@@H](COCCCN5CCCCC5)[C@@H]4C3)c2)cc1 [Example 14, (1S,5R,6R)-3-(3-phenoxybenzyl)-6-(3-piperidin-1-ylpropoxymethyl)-3-azabicyclo[3.1.0]hexane]	7.29
c1ccc(COc2cccc(CN3C[C@@H]4[C@@H](COCCCN5CCCCC5)[C@@H]4C3)c2)cc1 [Example 15, (1S,5R,6R)-3-(3-benzyloxybenzyl)-6-(3-piperidin-1-ylpropoxymethyl)-3-azabicyclo[3.1.0]hexane]	7.39
c1ccc(-c2ccc(CN3C[C@@H]4[C@@H](COCCCN5CCCCC5)[C@@H]4C3)cc2)cc1 [Example 17, (1S,5R,6R)-3-biphenyl-4-ylmethyl-6-(3-piperidin-1-ylpropoxymethyl)-3-azabicyclo[3.1.0]hexane]	7.49
c1ccc(Oc2ccc(CN3C[C@@H]4[C@@H](COCCCN5CCCCC5)[C@@H]4C3)cc2)cc1 [Example 30, (1S,5R,6R)-3-(4-phenoxybenzyl)-6-(3-piperidin-1-ylpropoxymethyl)-3-azabicyclo[3.1.0]hexane]	7.29
Fc1ccc(Oc2ccc(CN3C[C@@H]4[C@@H](COCCCN5CCCCC5)[C@@H]4C3)cc2)cc1 [Example 47, (1R,5S,6R)-3-[4-(4-fluorophenoxy)-benzyl]-6-(3-piperidin-1-ylpropoxymethyl)-3-azabicyclo[3.1.0]hexane]	7.37
CC(=O)Nc1ccc(CN2C[C@@H]3[C@@H](COCCCN4CCCCC4)[C@@H]3C2)cc1 [Example 49, N-{4-[(1R,5S,6R)-6-(3-piperidin-1-ylpropoxymethyl)-3-azabicyclo[3.1.0]hex-3-ylmethyl]-phenyl}-acetamide]	7.35
O=C1NCCN1c1ccc(CN2C[C@@H]3[C@@H](COCCCN4CCCCC4)[C@@H]3C2)cc1 [Example 51, 1-{4-[(1R,5S,6R)-6-(3-piperidin-1-ylpropoxymethyl)-3-azabicyclo[3.1.0]hex-3-ylmethyl]-phenyl}-imidazolidin-2-one]	7.24
COc1ccc(-c2ccc(CN3C[C@@H]4[C@@H](COCCCN5CCCCC5)[C@@H]4C3)cc2)cc1 [Example 57, (1R,5S,6R)-3-(4′-methoxybiphenyl-4-ylmethyl)-6-(3-piperidin-1-ylpropoxymethyl)-3-azabicyclo[3.1.0]hexane]	7.52
c1cncc(-c2ccc(CN3C[C@@H]4[C@@H](COCCCN5CCCCC5)[C@@H]4C3)cc2)c1 [Example 67, (1R,5S,6R)-6-(3-piperidin-1-ylpropoxymethyl)-3-(4-pyridin-3-ylbenzyl)-3-azabicyclo[3.1.0]hexane]	7.20
FC(F)C(F)(F)Oc1ccc(CN2C[C@@H]3[C@@H](COCCCN4CCCCC4)[C@@H]3C2)cc1 [Example 69, (1R,5S,6R)-6-(3-piperidin-1-ylpropoxymethyl)-3-[4-(1,1,2,2-tetrafluoroethoxy)-benzyl]-3-azabicyclo[3.1.0]hexane]	7.28
CC(C)COc1ccc(CN2C[C@@H]3[C@@H](COCCCN4CCCCC4)[C@@H]3C2)cc1 [Example 70, (1R,5S,6R)-3-(4-isobutoxybenzyl)-6-(3-piperidin-1-ylpropoxymethyl)-3-azabicyclo[3.1.0]hexane]	7.16
c1ccc(CN2C[C@@H]3[C@@H](COCCCN4CCCCC4)[C@@H]3C2)cc1 [Int. 3, (1S,5R,6R)-3-Benzyl-6-(3-piperidin-1-ylpropoxymethyl)-3-azabicyclo[3.1.0]hexane]	7.07
